Assay results published in patent publication US20230364272A1, “THERANOSTIC COMPOUNDS” (NRF ITHEMBA LABS, priority 2020, published 2023).

Experiments:
Assay type in all cases: cell-based
[1] = tested on: cervical (HeLa) cancer cell line; assay: Radioactivity uptake of ^123I radiolabeled ADAM10 inhibitor in HeLa cells; details: for uptake (in words): Table 1 / FIG. 2 experiment
Description: (§1) In order to test the biological activity of the radiolabeled compound in vitro, two cell lines were chosen as esophageal (WHCO5) and cervical (HeLa) cancer cell lines (using [^123I]Nal as the control) and the radioactivity uptake was measured using a bore-hole or scintillation counter. […] The well plates were incubated for one hour in a humidified CO2 incubator at 37° C. The measurements were performed with a ^123I Multi Channel Analyzer, and during the incubation time, a calibration and counting efficiency determination was carried out on the channel.^33
(§2) After the one-hour incubation period, the growth medium was aspirated, leaving the adherent cell monolayers intact and the cell cultures rinsed twice with cold PBS to remove any residual extracellular radioactivity. The cell monolayers were lysed with 1 mL 1M NaOH, and 1 mL of each lysed suspension was transferred to a clean test tube. The data is presented as an average of triplicates and was corrected for ^123I decay using Eff Corr as the correcting factor, which considers the half-life and decay of the radionuclide over a specific time interval.
(§3) […] Data represents an average and standard deviation of 12 replicates using 0.3 μCi of ^123I-SN-311 and 200000 cells.

[2] = tested on: cervical (HeLa) cancer cell line; assay: as above; details: 3 mCi (title); for Average counts per min: 1 h incubation; for A(0) per well × Eff corr: decay corrected
[3] = tested on: esophageal (WHCO5) cancer cell line; assay: Radioactivity uptake of ^123I radiolabeled ADAM10 inhibitor in WHCO5 cells; details: 3 mCi (title); for Average counts per min: 1 h incubation; for A(0) per well × Eff corr: decay corrected
[4] = tested on: esophageal (WHCO5) cancer cell line; assay: as above; details: for uptake (in words): WHCO5, Table 1 / FIG. 2 experiment
Description: as §1, §2, §3

[5] = tested on: esophageal (WHCO5) cancer cell line; assay: ADAM10 biological activity, EC50 in WHCO5 cells
[6] = tested on: cervical (HeLa) cancer cell line; assay: ADAM10 biological activity, EC50 in HeLa cells

[123I-].[Na+] [[^123I]NaI, reference compound]
uptake (in words) [1]: minimal uptake
Bq per well ([2]; 50000 cells): 148 Bq
Average counts per min ([2]; 50000 cells): 1974 counts per min
A(0) per well × Eff corr ([2]; 50000 cells): 8857
Bq per well ([2]; 100000 cells): 149 Bq
Average counts per min ([2]; 100000 cells): 1991 counts per min
A(0) per well × Eff corr ([2]; 100000 cells): 8934
Bq per well ([2]; 150000 cells): 173 Bq
Average counts per min ([2]; 150000 cells): 2308 counts per min
A(0) per well × Eff corr ([2]; 150000 cells): 10355
Bq per well ([2]; 200000 cells): 161 Bq
Average counts per min ([2]; 200000 cells): 2147 counts per min
A(0) per well × Eff corr ([2]; 200000 cells): 9635
Bq per well ([3]; WHCO5, 50000 cells): 297 Bq
Average counts per min ([3]; WHCO5, 50000 cells): 3968 counts per min
A(0) per well × Eff corr ([3]; WHCO5, 50000 cells): 17807
Bq per well ([3]; WHCO5, 100000 cells): 308 Bq
Average counts per min ([3]; WHCO5, 100000 cells): 4116 counts per min
A(0) per well × Eff corr ([3]; WHCO5, 100000 cells): 18470
Bq per well ([3]; WHCO5, 150000 cells): 317 Bq
Average counts per min ([3]; WHCO5, 150000 cells): 4239 counts per min
A(0) per well × Eff corr ([3]; WHCO5, 150000 cells): 19021
Bq per well ([3]; WHCO5, 200000 cells): 357 Bq
Average counts per min ([3]; WHCO5, 200000 cells): 4772 counts per min
A(0) per well × Eff corr ([3]; WHCO5, 200000 cells): 21415
uptake (in words) [4]: minimal uptake

CNC(=O)C(NC(=O)C(CCCc1ccc([123I])cc1)C(C)N(O)C=O)C(C)(C)C (centres unmarked) [^123I-SN-311]
uptake of the radiolabeled compound ([1]; 0.3 μCi per well, 200000 cells, average of 12 replicates): 81.76 Bq
uptake (in words) [1]: clear uptake
Bq per well ([2]; 50000 cells): 455 Bq
Average counts per min ([2]; 50000 cells): 6080 counts per min
A(0) per well × Eff corr ([2]; 50000 cells): 27284
Bq per well ([2]; 100000 cells): 567 Bq
Average counts per min ([2]; 100000 cells): 7582 counts per min
A(0) per well × Eff corr ([2]; 100000 cells): 34023
Bq per well ([2]; 150000 cells): 691 Bq
Average counts per min ([2]; 150000 cells): 9236 counts per min
A(0) per well × Eff corr ([2]; 150000 cells): 41445
Bq per well ([2]; 200000 cells): 864 Bq
Average counts per min ([2]; 200000 cells): 11555 counts per min
A(0) per well × Eff corr ([2]; 200000 cells): 51852
Bq per well ([3]; WHCO5, 50000 cells): 698 Bq
Average counts per min ([3]; WHCO5, 50000 cells): 9337 counts per min
A(0) per well × Eff corr ([3]; WHCO5, 50000 cells): 41898
Bq per well ([3]; WHCO5, 100000 cells): 988 Bq
Average counts per min ([3]; WHCO5, 100000 cells): 13207 counts per min
A(0) per well × Eff corr ([3]; WHCO5, 100000 cells): 59265
Bq per well ([3]; WHCO5, 150000 cells): 1202 Bq
Average counts per min ([3]; WHCO5, 150000 cells): 16075 counts per min
A(0) per well × Eff corr ([3]; WHCO5, 150000 cells): 72135
Bq per well ([3]; WHCO5, 200000 cells): 1421 Bq
Average counts per min ([3]; WHCO5, 200000 cells): 18996 counts per min
A(0) per well × Eff corr ([3]; WHCO5, 200000 cells): 85240
uptake of the radiolabeled compound ([4]; WHCO5, 0.3 μCi per well, 200000 cells, average of 12 replicates): 127.63 Bq
uptake (in words) [4]: clear uptake

CNC(=O)[C@@H](NC(=O)[C@H](CCCc1ccccc1)[C@@H](C)N(O)C=O)C(C)(C)C [SN-311]
EC50 compared with G1254023X [5]: fall within the 95% confidence interval of that of G1254023X
EC50 compared with G1254023X [6]: fall within the 95% confidence interval of that of G1254023X
